{"source": "patent US20190153538A1", "about": "“GENE EXPRESSION BIOMARKERS FOR PERSONALIZED CANCER CARE TO EPIGENETIC MODIFYING AGENTS” (Oryzon Genomics, S.A., priority 2015, published 2019)", "key": {"[1]": {"test_system": "19 small cell lung cancer cell lines", "experiment": "Cell response to LSD1 inhibition: compound potency determination in SCLC cell line panel", "type": "cell-based", "conditions": "4 days culture", "procedure": "The compound potency determination was performed by culturing 19 small cell lung cancer cell lines […] for 4 days at 37 degrees C. at 5% CO2 in humidified incubators in the presence of serially diluted (trans)-N1-((1R,2S)-2-phenylcyclopropyl)cyclohexane-1,4-diamine bis-hydrochloride.\nAs a positive control for cytotoxicity the Hsp90 inhibitor 17-N-allylamino-17-demethoxygeldanamycin (17-AAG, a geldanamycin analogue) was used as positive control in serial dilution. Each of the cell lines was propagated and tested in distinct optimized media as recommended by ATCC or cell line source.\nSmall cell lung cancer cell lines can be categorized as “classic” or “variant”, based on their enzymatic activities, cellular morphologies, and growth phenotypes (Desmond et al., Cancer Res (1985) 45(6):2913-2923; Shoemaker R. H., Nature Reviews Cancer […] 6:813-823). Classic cells lines express elevated levels of L-dopa decarboxylase, bombesin-like immunoreactivity, neuron-specific enolase, and the brain isozyme of creatine kinase; variant cell lines continue to express neuron-specific enolase and the brain isozyme of creatine kinase, but have undetectable levels of L-dopa decarboxylase and bombesin-like immunoreactivity. Unlike classic cell lines, some variant cell lines are amplified for and have increased expression of the c-myc (MYC)oncogene.\nDepending on their responses to (trans)-N1-((1R,2S)-2-phenylcyclopropyl)cyclohexane-1,4-diamine bis-hydrochloride, cell lines are classified as either “sensitive” [5], defined as having EC50<0.05 μM, or “resistant”, defined as having EC50>=0.05 μM [R]."}, "H510A xenograft": {"test_system": "H510A xenograft", "experiment": "In vivo tumor growth inhibition, NCI-H510A xenograft model", "design": "species or system athymic nude mice", "conditions": "40 μg per kg five days on/two days off, after 21 days of dosing, compared to untreated controls", "procedure": "7-8-week old athymic nude mice animals were injected with 5×10^6 H510A cells resuspended in 100 μL of 1:1 mixture of Matrigel® matrix (Corning Inc., Tewksbury/MA, C. S. Hughes et al., Proteomics (2010) 10(9):1886-90) and PBS. Tumors were staged at 200-300 mm^3 animals and distributed into dosing groups. (trans)-N1-((1R,2S)-2-phenylcyclopropyl)cyclohexane-1,4-diamine was administered at a dose of 40 μg per kg (upk) five days on/two days off until end of study. Tumor volume was measure biweekly using a digital caliber. The study was concluded when mean tumor volume within control group reached 2000 mm^3 or 28 days post-staging. Statistical analysis was performed using unpaired t-test."}}, "note": "Counter-ions that a name gives are not always drawn."}
{"smiles": "N[C@H]1CC[C@H](N[C@@H]2C[C@H]2c2ccccc2)CC1", "note": "[(trans)-N1-((1R,2S)-2-phenylcyclopropyl)cyclohexane-1,4-diamine bis-hydrochloride]", "values": [{"measurement": "Cell-based response, classic versus variant SCLC cell lines", "setting": "[1]; p-value 0.0055", "value": "greater in classic SCLC cell lines compared to variant SCLC cell lines"}, {"measurement": "variant cell lines [V] that are resistant", "setting": "[1]; resistant = EC50>=0.05 μM", "value": "7 out of 8"}, {"measurement": "classic cell lines [C] that are sensitive", "setting": "[1]; sensitive = EC50<0.05 μM", "value": "9 out of 11"}]}
{"smiles": "N[C@H]1CC[C@H](N[C@@H]2C[C@H]2c2ccccc2)CC1", "note": "[(trans)-N1-((1R,2S)-2-phenylcyclopropyl)cyclohexane-1,4-diamine]", "values": [{"measurement": "tumor growth inhibition", "setting": "H510A xenograft", "value": 34, "unit": "%"}]}
